# Source: patent US6211168A, “Methods for preparation and use of 1α,24 (S)-dihydroxy vitamin D2” (Bone Care International, Inc, priority 1995, dated 2001)
# Columns and labels:
# vitamin D receptor (VDR) = target: T1, vitamin D receptor (VDR) (Homo sapiens, UniProt P11473); assay: vitamin D-dependent transcriptional activation: growth hormone production in transfected COS-1 cells; format: cell-based; settings: transfected COS-1 cells
# T1 construct: RXR partner endogenous (monkey)
# T1 sequence (P11473 1-427): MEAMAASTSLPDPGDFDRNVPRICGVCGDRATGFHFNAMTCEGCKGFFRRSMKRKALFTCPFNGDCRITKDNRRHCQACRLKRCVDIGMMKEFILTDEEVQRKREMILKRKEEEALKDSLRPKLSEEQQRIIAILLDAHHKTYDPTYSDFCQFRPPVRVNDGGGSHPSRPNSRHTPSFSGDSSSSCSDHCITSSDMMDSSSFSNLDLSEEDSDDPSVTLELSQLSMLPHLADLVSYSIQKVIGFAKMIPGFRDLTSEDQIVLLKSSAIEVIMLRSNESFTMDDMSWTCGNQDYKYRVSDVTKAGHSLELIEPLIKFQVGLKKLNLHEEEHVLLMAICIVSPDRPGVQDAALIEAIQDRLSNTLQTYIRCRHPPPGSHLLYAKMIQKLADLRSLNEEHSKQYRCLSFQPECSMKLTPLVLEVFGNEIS
# Procedure: The biological activity in vitro of chemically synthesized 1α,24(S)-(OH)2 D2 and 1α,24(R)-(OH)2 D2 was measured using a vitamin D-dependent transcriptional activation model system in which a vitamin D receptor (VDR)-expressing plasmid pSG5-hVDR1/3and a plasmid p(CT4)^4 TKGH containing a Growth Hormone (GH)-gene, under the control of a vitamin D-responsive element (VDRE) were co-transfected into Green monkey kidney, COS-1 cells. DNA's for these two vectors were supplied by Dr. Mark Haussler, Department of Biochemistry, University of Arizona, Tucson, Ariz.
# Tranfected cells were incubated with vitamin D metabolites and growth hormone production was measured.
# HL-60 promyelocytes = assay: HL-60 cell differentiation assay; format: cell-based; settings: dose-response; acid esterase, NBT reduction, thymidine incorporation
# Procedure: A dose-response study is conducted with 1α,24(S)-(OH)2 D2 in the HL-60 cell differentiation assay as described by DeLuca and Ostrom (DeLuca, H. F. and Ostrem, V. K., Prog. Clin. Biol. Res., vol. 259, pp. 41-55 (1988)). In this study, 1α,25-(OH)2 D3 is used as a positive control and appropriate solvents are used as negative controls. The following variables are evaluated: nonspecific acid esterase activity, nitroblue tetrazolium (NBT) reduction, and thymidine incorporation.
# [1] = target: T2, vitamin D serum binding protein (DBP) (Rattus norvegicus, UniProt P04276); assay: affinity for vitamin D serum binding protein in vitamin D deficient rat serum
# T2 sequence (P04276 17-476): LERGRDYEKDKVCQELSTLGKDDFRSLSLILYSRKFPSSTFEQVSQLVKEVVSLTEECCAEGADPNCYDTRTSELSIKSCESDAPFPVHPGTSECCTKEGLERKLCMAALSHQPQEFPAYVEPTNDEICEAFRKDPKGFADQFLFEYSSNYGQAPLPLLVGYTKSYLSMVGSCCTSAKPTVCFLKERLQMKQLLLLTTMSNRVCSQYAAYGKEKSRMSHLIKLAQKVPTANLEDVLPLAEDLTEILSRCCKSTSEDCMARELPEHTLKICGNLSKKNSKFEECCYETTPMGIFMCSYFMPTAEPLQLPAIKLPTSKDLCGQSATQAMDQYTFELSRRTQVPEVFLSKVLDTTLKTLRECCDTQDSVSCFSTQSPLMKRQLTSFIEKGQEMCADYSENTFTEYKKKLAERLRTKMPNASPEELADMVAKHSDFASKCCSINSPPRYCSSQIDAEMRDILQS
# Excerpt: In addition, the weak binding by the DBP was indicative of more rapid clearance, allowing for low toxicity.
# [2] = test system: men and women with renal disease undergoing chronic hemodialysis; assay: hypocalcemia and metabolic bone disease in chronic hemodialysis patients; format: in vivo, human; settings: greater than 3.0 μg/day, twelve months
# Procedure: A twelve-month, double-blind, placebo-controlled clinical trial is conducted with thirty men and women with renal disease who are undergoing chronic hemodialysis. […] Efficacy is evaluated by pre- and post-treatment comparisons of the two patient groups with regard to (a) direct measurements of intestinal calcium absorption, (b) total body calcium retention, (c) radial and spinal bone mineral density, or (d) determinations of serum calcium. Safety is evaluated by regular monitoring of serum calcium.
# [3] = test system: healthy postmenopausal women; assay: prophylaxis of postmenopausal bone loss; format: in vivo, human; settings: at or above 1.0 μg/day
# Procedure: A clinical study is conducted with healthy postmenopausal women having ages between 55 and 60 years. The study involves up to 80 patients randomly divided into two treatment groups, and continues for 24 to 36 months. One treatment group receives a constant dosage of 1α,24(S)-dihydroxy vitamin D2 (u.i.d.; a dose level at or above 1.0 μg/day) and the other receives a matching placebo. The study is conducted as indicated in Example 2 above.
# Human keratinocytes = assay: epidermal cell differentiation and proliferation testing; format: cell-based; settings: 0.05 to 5 μg/ml, versus ethanol control cultures
# Procedure: Human keratinocytes are cultured according to known modifications of the system originally described by Rheinwald and Green (Cell, vol. 6, p. 331 (1975)). The 1α,24(S)-dihydroxy vitamin D2, dissolved in ethanol, is added to cells to yield a variety of concentrations between 0.05 and 5 μg/ml with the ethanol concentration not to exceed 0.5% v/v. Control cultures are supplemented with ethanol at a final concentration of 0.5% v/v.
# Differentiation and proliferation of epidermal cells in culture is examined by:
# 1. quantitation of cornified envelopes;
# 2. quantitation of cell density of cells attached to disks;
# 3. monitoring transglutaminase activity; or
# 4. monitoring DNA synthesis by incorporation of ^3 H-thymidine.
# [4] = test system: postmenopausal osteoporotic women; assay: dose ranging study in postmenopausal osteoporotic women; format: in vivo, human; settings: oral 0.5 to 8.0 μg/day escalating over five weeks
# Procedure: Twenty postmenopausal osteoporotic women are enrolled in an open label study.
# On admission to the study, all patients receive instruction on selecting a daily diet containing 400 to 600 mg of calcium. Compliance to this diet is verified at weekly intervals by 24-hour food records and by interviews with each patient.
# All patients complete a one-week baseline period, a five-week treatment period, and a one-week post-treatment observation period. During the treatment period, patients orally self-administer 1α,24(S)-dihydroxyvitamin D2 at an initial dose of 0.5 μg/day for the first week, and at successively higher doses of 1.0, 2.0, 4.0, and 8.0 μg/day in each of the following four weeks. All doses are administered before breakfast.
# Blood and urine chemistries are monitored on a weekly basis throughout the study. Key blood chemistries include fasting serum levels of calcium, phosphorus, osteocalcin, creatinine, and blood urea nitrogen. Key urine chemistries include 24-hour excretion of calcium, phosphorus, and creatinine.
smiles,measurement,setting,value
"C=C1/C(=C\C=C2/CCC[C@]3(C)[C@@H]([C@H](C)/C=C/[C@@](C)(O)C(C)C)CC[C@@H]23)C[C@@H](O)C[C@@H]1O [1α,24(S)-(OH)2 D2, 1α,24(S)-dihydroxy vitamin D2]",activity in the transcriptional activation system compared with the 24(R) epimer,vitamin D receptor (VDR),"significantly more activity in this system than 1α,24(R)-(OH)2 D2"
same,differentiation of HL-60 promyelocytes to monocytes,HL-60 promyelocytes,potent activity in promoting differentiation of HL-60 promyelocytes to monocytes
same,binding affinity for the vitamin D serum binding protein,[1],relatively poor binding affinity
same,"binding to the vitamin D serum binding protein relative to 1,25-(OH)2 D3",[1],"more weakly than does 1,25-(OH)2 D3"
same,radial and spinal bone densities relative to baseline,[2],stable radial and spinal bone densities
same,total body calcium relative to baseline,[2],stable values for total body calcium
same,intestinal calcium absorption,[2]; double-isotope technique,significantly increases intestinal calcium absorption
same,"losses in total body calcium, radial or spinal bone densities relative to baseline",[3]; 24 to 36 months,"reduced losses in total body calcium, radial or spinal bone densities relative to baseline values"
same,monitored safety parameters,[3]; long-term administration,"confirm the safety of long-term 1α,24(S)-dihydroxy vitamin D2 administration"
same,DNA synthesis by incorporation of 3H-thymidine,Human keratinocytes,lower DNA synthesis
same,cell density of cells attached to disks,Human keratinocytes,fewer attached cells
same,cornified envelopes,Human keratinocytes,more cornified envelopes
same,transglutaminase activity,Human keratinocytes,higher transglutaminase activity
same,24-hour urinary calcium levels,[4],modest increases in 24-hour urinary calcium levels
same,routinely monitored serum parameters,[4],no effect on any routinely monitored serum parameters
same,serum osteocalcin levels,[4],increases in serum osteocalcin levels
same,urinary excretion of hydroxyproline,[4],nor does it increase urinary excretion of hydroxyproline
